# Results as given in PubChem BioAssay (NCI).
# Values joined by “and” are separate entries in the source; they are usually repeats but may differ in a detail not shown here. Identical values can stand only once.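 Growth conditions: 96-well plates. Treatment: test compound, 48 hours, 5 concentrations. Analysis: linear interpolation between bracketing concentrations; unreached endpoints set to highest concentration. GI50 = concentration required for 50% inhibition of growth. TGI: concentration producing complete growth inhibition.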
# Tests used:
# Assay in all cases: NCI anticancer screen, dose series, 48 h
# [1] = tested on: MDA-MB-468 breast
# [2] = tested on: DU-145 prostate
# [3] = tested on: M14 melanoma
# [4] = tested on: OVCAR-3 ovarian
# [5] = tested on: SF-295 CNS
# [6] = tested on: A498 renal
# [7] = tested on: HCT-116 colon
# [8] = tested on: ACHN renal
# [9] = tested on: SF-539 CNS
# [10] = tested on: EKVX NSCLC
# [11] = tested on: SF-268 CNS
# [12] = tested on: NCI-H460 lung
# [13] = tested on: HCT-15 colon
# [14] = tested on: HOP-62 NSCLC
# [15] = tested on: IGROV1 ovarian
# [16] = tested on: MDA-MB-435
# [17] = tested on: PC-3 prostate
# [18] = tested on: MOLT-4 leukemia
# [19] = tested on: RXF 393 renal
# [20] = tested on: OVCAR-5 ovarian
# [21] = tested on: CCRF-CEM leukemia
# [22] = tested on: KM12 colon
# [23] = tested on: UACC-257 melanoma
# [24] = tested on: HL-60(TB) leukemia
# [25] = tested on: HOP-92 NSCLC
# [26] = tested on: T-47D breast
# [27] = tested on: SNB-19 CNS
# [28] = tested on: SNB-75 CNS
# [29] = tested on: SR leukemia
# [30] = tested on: COLO 205 colon
# [31] = tested on: UO-31 renal
# [32] = tested on: NCI-H226 lung
# [33] = tested on: UACC-62 melanoma
# [34] = tested on: NCI/ADR-RES ovarian
# [35] = tested on: BT-549 breast
# [36] = tested on: K-562 leukemia
# [37] = tested on: MALME-3M melanoma
# [38] = tested on: OVCAR-8 ovarian
# [39] = tested on: HCC-2998 colon
# [40] = tested on: SN12C renal
# [41] = tested on: SK-MEL-28 melanoma
# [42] = tested on: SK-MEL-5 melanoma
# [43] = tested on: SK-OV-3 ovarian
# [44] = tested on: TK-10 renal
# [45] = tested on: 786-0 renal
# [46] = tested on: MCF7 breast
# [47] = tested on: NCI-H23 lung
# [48] = tested on: NCI-H522 lung
# [49] = tested on: OVCAR-4 ovarian
# [50] = tested on: A549 NSCLC
# [51] = tested on: U251 CNS
# [52] = tested on: RPMI-8226 leukemia
# [53] = tested on: CAKI-1 renal
# [54] = tested on: HT29 colon
# [55] = tested on: SK-MEL-2 melanoma
structure (smiles),measurement,setting,value
O=c1oc2ccc(I)cc2c(=O)n1-c1ccc(Cl)cc1F,GI50,[1],2.11 µM
same,TGI,[1],5.81 µM
CN(C)C(=O)O[C@H]1CN[C@H](C#Cc2cc3ncnc(Nc4ccc(OCc5cccc(F)c5)c(Cl)c4)c3s2)C1,GI50,[1],0.595 µM
same,TGI,[1],5.11 µM
O=C(N/N=C/c1ccccc1O)c1ccccc1,GI50,[1],0.292 µM
same,TGI,[1],> 100 µM
Nc1ccc(/C=C/C(=O)NCc2cc3cc(-c4ccc(C(=O)N5CCC(F)(F)CC5)cc4)cc(-c4ccc(F)cc4)c3o2)cn1,GI50,[1],22.6 µM
same,TGI,[1],> 100 µM
c1ccc2[nH]c(-c3ccc(Nc4nc(N5CCCCC5)nc(N5CCOCC5)n4)cc3)nc2c1,GI50,[1],2.68 µM
same,TGI,[1],6.51 µM
C=C1C(=O)O[C@H]2[C@H]1CC/C(C=Nc1c(N)cc(C(F)(F)F)cc1Br)=C\CC[C@@]1(C)O[C@@H]21,GI50,[1],1.88 µM
same,TGI,[1],4.19 µM
C=C1C(=O)O[C@H]2[C@H]1CC/C(COC(=O)NCC(C)c1ccc(CC(C)C)cc1)=C\CC[C@@]1(C)O[C@@H]21 (stereo partly drawn),GI50,[1],0.656 µM
same,TGI,[1],1.84 µM
COc1ccc(CN2C3CC2CN(c2ccc(-c4cc(OCC(C)(C)O)cn5ncc(C#N)c45)cn2)C3)cn1,GI50,[1],8.09 µM
same,TGI,[1],> 100 µM
O=c1c(F)cn(Cc2ccccc2CCl)c(=O)n1Cc1ccccc1CCl,GI50,[1],0.684 µM
same,TGI,[1],2.27 µM
C=C1C[C@@H]2CC[C@@]34C[C@H]5O[C@H]6[C@@H](O3)[C@H]3O[C@H](CC[C@@H]3O[C@H]6[C@@H]5O4)CC(=O)C[C@@H]3[C@@H](OC)[C@@H](C[C@H](O)CN)O[C@H]3C[C@H]3O[C@@H](CC[C@@H]1O2)C[C@@H](C)C3=C,GI50,[1],< 0.01 µM
same,TGI,[1],0.0661 µM
O=C1OCC2=C1C(c1ccccc1)c1cc3c(cc1N2CCO)OCO3 (stereo not drawn),GI50,[1],1.22 µM
same,TGI,[1],4.61 µM
COc1ccc(C(=O)c2ccc([As]=O)cc2)cc1 (stereo not drawn),GI50,[1],0.0692 µM
same,TGI,[1],0.242 µM
CN(C)c1ccc(-c2ccc(-c3ccc(C(=N)N)cc3)s2)cc1,GI50,[1],1.94 µM
same,TGI,[1],3.76 µM
CCOc1ccc(-c2nnc(C3CC(NC(=O)c4cccc5nccnc45)C3)n2-c2ccccc2F)nc1 (stereo not drawn),GI50,[1],10 µM
same,TGI,[1],71.5 µM
CCNC(=O)c1noc(-c2cc(C(C)C)c(O)cc2O)c1-c1ccc(CN2CCOCC2)cc1,GI50,[1],< 0.01 µM
same,TGI,[1],0.055 µM
O=C1NC(=O)c2c1c1c3ccccc3ccc1c1[nH]c3ccccc3c21,GI50,[1],0.953 µM
same,TGI,[1],8.87 µM
Cn1cc(C2=C(c3cn(C4CCN(Cc5ccccn5)CC4)c4ccccc34)C(=O)NC2=O)c2ccccc21,GI50,[1],2.08 µM
same,TGI,[1],> 100 µM
CNC(=O)c1nn(C)c2c1C(C)(C)Cc1cnc(Nc3ccc(N4CCN(C)CC4)cc3)nc1-2,GI50,[1],0.813 µM
same,TGI,[1],> 4.2 µM
O=C1CCCCN1CCCCC#Cc1cccc(C#Cc2cccnc2)c1,GI50,[1],10.2 µM
same,TGI,[1],28.5 µM
O=S(=O)(CCCl)c1ccc(Cl)cc1,GI50,[1],1.82 µM
same,TGI,[1],5.77 µM
C(=N\Nc1nnn(Cc2ccccc2)n1)/c1ccccc1,GI50,[1],1.48 µM
same,TGI,[1],11.9 µM
O=S(=O)(NCCCNc1nccc(-c2c(-c3ccc(F)cc3)nc3sccn23)n1)c1ccc2ccccc2c1,GI50,[1],3.87 µM
same,TGI,[1],> 100 µM
C=C1CC[C@@H]2[C@]3(C)COC(c4cn[nH]c4-c4ccc(F)cc4)O[C@@H]3CC[C@@]2(C)[C@@H]1C/C=C1/C(=O)OCC1O (stereo partly drawn),GI50,[2],19.6 µM
same,TGI,[2],43.5 µM
same,GI50,[3],16.5 µM
same,TGI,[3],34.1 µM
same,GI50,[4],15.9 µM
same,TGI,[4],32.9 µM
same,GI50,[5],16.6 µM
same,TGI,[5],30.7 µM
same,GI50,[6],17 µM
same,TGI,[6],30.7 µM
same,GI50,[7],14.9 µM
same,TGI,[7],28.1 µM
same,GI50,[8],15.1 µM
same,TGI,[8],28.4 µM
same,GI50,[9],14.5 µM
same,TGI,[9],27.6 µM
same,GI50,[10],13.5 µM
same,TGI,[10],26.3 µM
same,GI50,[11],20.7 µM
same,TGI,[11],74.9 µM
same,GI50,[1],11.9 µM
same,TGI,[1],24.6 µM
same,GI50,[12],19.7 µM
same,TGI,[12],42.7 µM
same,GI50,[13],14.9 µM
same,TGI,[13],30.5 µM
same,GI50,[14],18.1 µM
same,TGI,[14],34.4 µM
same,GI50,[15],16.4 µM
same,TGI,[15],30.6 µM
same,GI50,[16],20.8 µM
same,TGI,[16],52.9 µM
same,GI50,[17],15.6 µM
same,TGI,[17],43.9 µM
same,GI50,[18],20.2 µM
same,TGI,[18],77.4 µM
same,GI50,[19],13.7 µM
same,TGI,[19],27 µM
same,GI50,[20],18.2 µM
same,TGI,[20],32.2 µM
same,GI50,[21],4.6 µM
same,TGI,[21],38.5 µM
same,GI50,[22],22.5 µM
same,TGI,[22],57 µM
same,GI50,[23],22.3 µM
same,TGI,[23],69.2 µM
same,GI50,[24],12.8 µM
same,TGI,[24],40.2 µM
same,GI50,[25],14.7 µM
same,TGI,[25],34.9 µM
same,GI50,[26],15.7 µM
same,TGI,[26],47.7 µM
same,GI50,[27],16 µM
same,TGI,[27],29.5 µM
same,GI50,[28],14.1 µM
same,TGI,[28],43.8 µM
same,GI50,[29],16.7 µM
same,TGI,[29],56.4 µM
same,GI50,[30],18.2 µM
same,TGI,[30],35 µM
same,GI50,[31],13.7 µM
same,TGI,[31],26.6 µM
same,GI50,[32],13.1 µM
same,TGI,[32],27.6 µM
same,GI50,[33],14.3 µM
same,TGI,[33],27.3 µM
same,GI50,[34],17.7 µM
same,TGI,[34],85.9 µM
same,GI50,[35],13.4 µM
same,TGI,[35],27.5 µM
same,GI50,[36],13.1 µM
same,TGI,[36],49.6 µM
same,GI50,[37],16 µM
same,TGI,[37],30 µM
same,GI50,[38],23.3 µM
same,TGI,[38],> 100 µM
same,GI50,[39],16.3 µM
same,TGI,[39],29.8 µM
same,GI50,[40],15.4 µM
same,TGI,[40],29.6 µM
same,GI50,[41],16.8 µM
same,TGI,[41],30.4 µM
same,GI50,[42],15.5 µM
same,TGI,[42],28.9 µM
same,GI50,[43],21.8 µM
same,TGI,[43],43.5 µM
same,GI50,[44],19 µM
same,TGI,[44],33 µM
same,GI50,[45],16.6 µM
same,TGI,[45],30.2 µM
same,GI50,[46],7.52 µM
same,TGI,[46],22 µM
same,GI50,[47],15.6 µM
same,TGI,[47],29.9 µM
same,GI50,[48],16.7 µM
same,TGI,[48],30.9 µM
same,GI50,[49],27.5 µM
same,TGI,[49],> 100 µM
same,GI50,[50],21.4 µM
same,TGI,[50],62.2 µM
same,GI50,[51],12.9 µM
same,TGI,[51],30.5 µM
same,GI50,[52],11.5 µM
same,TGI,[52],60.8 µM
same,GI50,[53],21.5 µM
same,TGI,[53],50 µM
same,GI50,[54],16.4 µM
same,TGI,[54],30.2 µM
same,GI50,[55],16.5 µM
same,TGI,[55],31.6 µM
O=C(O)[C@@H](Cc1ccc2ccccc2c1)NC(=O)n1c2ccccc2c2ccccc21,GI50,[1],1.9 µM
same,TGI,[1],7.17 µM
CCCCCCCCCCCCCCCC[N+]1(C)CCOCC1,GI50,[1],0.374 µM
same,TGI,[1],2.16 µM
Cc1ccc(-c2nc3nc(-c4ccc(F)cc4)nc(N4CCCNCC4)c3o2)cc1,GI50,[1],1.58 µM
same,TGI,[1],3.18 µM
OC(c1cc2ccc(C(F)(F)F)cc2c2cc(C(F)(F)F)ccc12)C1CCCCN1 (stereo not drawn),GI50,[1],1.6 µM
same,TGI,[1],3.09 µM
COc1ccc(OC)c(Cn2cc3c(c2-c2ccccc2)CCc2cnoc2-3)c1,GI50,[1],2.64 µM
same,TGI,[1],11.5 µM
COc1cc(NCCCCCCCNC(C)C)c2nccc(C)c2c1,GI50,[1],3.11 µM
same,TGI,[1],14.7 µM
CCCCn1c(-c2ccc(C(=O)O/N=C(\N)c3ccc4c(c3)OCO4)cc2)nc(-c2ccccc2)c1-c1ccccc1,GI50,[1],3.83 µM
same,TGI,[1],> 100 µM
CN1/C(=C\C=C\C2=[N+](C)c3ccccc3C2(C)C)C(C)(C)c2ccccc21,GI50,[1],0.0217 µM
same,TGI,[1],0.123 µM
C/C(=N\NC(=S)Nc1ccc(Br)cc1)c1cc2ccccc2oc1=O,GI50,[1],1.22 µM
same,TGI,[1],5.82 µM
CCC1=CC2CN(C1)Cc1c([nH]c3ccccc13)[C@@](C(=O)OC)(c1cc3c(cc1OC)N(C)[C@H]1[C@@](O)(C(=O)OC)[C@H](OC(C)=O)[C@]4(CC)C=CCN5CC[C@]31[C@@H]54)C2 (stereo partly drawn),TGI,[1],21 µM
COC(=O)C1(C)Cc2cc(OC(C)=O)c(OC(C)=O)cc2N1 (stereo not drawn),GI50,[1],1.9 µM
same,TGI,[1],6.53 µM
CCc1c2c(nc3ccc(OC(=O)N4CCC(N5CCCCC5)CC4)cc13)-c1cc3c(c(=O)n1C2)COC(=O)[C@]3(O)CC,TGI,[1],1.79 µM and 1.51 µM and 5.77 µM
O=C(Nc1ccc(Cl)c(Cl)c1)NS(=O)(=O)c1cnccc1Oc1ccc(F)cc1,GI50,[1],4.26 µM
same,TGI,[1],> 100 µM
